Experimental data taken from patent US6812228B2, “Benzoxazines for use in the treatment of parkinson's disease” (Warner-Lambert Company, priority 2000, dated 2004).
Like-named read-outs stand apart in the source and are kept apart here.

Key:
[1] = target: T1, human muscarinic receptor subtype M1 (Homo sapiens, UniProt P11229); experiment: Muscarinic receptor binding, displacement of [3H]-NMS, membranes from transfected CHO cells
T1 sequence (P11229 1-460): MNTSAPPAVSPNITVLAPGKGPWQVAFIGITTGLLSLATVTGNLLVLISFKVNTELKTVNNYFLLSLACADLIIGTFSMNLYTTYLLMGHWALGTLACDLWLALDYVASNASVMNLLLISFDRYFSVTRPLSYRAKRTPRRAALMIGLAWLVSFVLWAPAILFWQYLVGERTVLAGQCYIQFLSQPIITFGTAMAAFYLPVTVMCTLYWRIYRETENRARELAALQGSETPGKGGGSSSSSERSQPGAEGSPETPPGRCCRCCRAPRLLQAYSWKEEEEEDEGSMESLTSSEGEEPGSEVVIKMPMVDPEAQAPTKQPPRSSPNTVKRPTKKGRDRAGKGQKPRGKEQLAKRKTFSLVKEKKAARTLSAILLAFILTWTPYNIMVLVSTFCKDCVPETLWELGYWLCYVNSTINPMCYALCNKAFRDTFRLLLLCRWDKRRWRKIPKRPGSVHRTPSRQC
Experimental: (§1) The compounds were evaluated in standard assays used to measure muscarinic receptor binding, and they were compared with other benzoxazines described in Bioorganic & Medicinal Chemistry Letters 8, 1998:1991-1996, which is incorporated herein by reference. Specifically, the compounds were evaluated for their binding affinity toward five human muscarinic receptor subtypes (M1-M5) by the method of Dorje et al., J. Pharm. Exp. Ther. 1991;256:727-733, which is incorporated herein by reference. The binding was determined by measuring the displacement of [^3H]-NMS (N-methylscopolamine) binding using membranes from transfected Chinese hamster ovary (CHO) cells.

[2] = target: T2, human muscarinic receptor subtype M2 (Homo sapiens, UniProt P08172); experiment: as above
T2 sequence (P08172 1-466): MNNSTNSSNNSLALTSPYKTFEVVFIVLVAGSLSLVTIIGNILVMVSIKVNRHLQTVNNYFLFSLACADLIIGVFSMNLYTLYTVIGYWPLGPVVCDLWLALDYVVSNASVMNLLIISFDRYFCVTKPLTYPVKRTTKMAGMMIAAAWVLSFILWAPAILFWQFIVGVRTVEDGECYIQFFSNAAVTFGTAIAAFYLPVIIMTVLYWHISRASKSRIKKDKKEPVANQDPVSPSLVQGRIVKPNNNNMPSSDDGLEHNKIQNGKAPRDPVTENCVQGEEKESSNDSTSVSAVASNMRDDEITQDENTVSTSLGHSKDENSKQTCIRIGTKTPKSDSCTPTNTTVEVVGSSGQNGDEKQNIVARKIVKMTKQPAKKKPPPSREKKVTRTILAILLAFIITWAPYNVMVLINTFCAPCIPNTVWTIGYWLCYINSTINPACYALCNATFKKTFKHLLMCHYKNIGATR
Experimental: as §1

[3] = target: human muscarinic receptor subtype M3 (Homo sapiens, UniProt P20309); experiment: as above
Sequence of human muscarinic receptor subtype M3 (P20309 whole entry): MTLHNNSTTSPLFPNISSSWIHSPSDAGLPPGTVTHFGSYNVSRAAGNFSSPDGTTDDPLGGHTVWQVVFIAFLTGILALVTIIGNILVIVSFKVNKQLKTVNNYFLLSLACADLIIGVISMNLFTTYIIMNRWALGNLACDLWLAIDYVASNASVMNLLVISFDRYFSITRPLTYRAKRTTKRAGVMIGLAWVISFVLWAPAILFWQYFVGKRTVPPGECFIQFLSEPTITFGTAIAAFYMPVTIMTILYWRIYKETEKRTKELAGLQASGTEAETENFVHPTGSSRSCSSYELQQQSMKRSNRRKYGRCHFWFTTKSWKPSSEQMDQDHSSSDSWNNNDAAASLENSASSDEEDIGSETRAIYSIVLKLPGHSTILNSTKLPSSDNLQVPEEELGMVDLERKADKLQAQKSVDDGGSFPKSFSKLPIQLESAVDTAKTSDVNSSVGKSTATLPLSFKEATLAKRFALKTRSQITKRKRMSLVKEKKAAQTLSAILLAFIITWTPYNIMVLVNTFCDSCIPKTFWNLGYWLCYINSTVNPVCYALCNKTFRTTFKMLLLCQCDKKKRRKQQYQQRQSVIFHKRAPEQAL
Experimental: as §1

[4] = target: T3, human muscarinic receptor subtype M4 (Homo sapiens, UniProt P08173); experiment: as above; conditions: for binds to the M4 receptor more than to M3 (selectivity): M4 versus M3; for bind to M4 more than some of the other subtypes (selectivity): M4 versus some of the other subtypes, upper figure (as much as)
T3 sequence (P08173 1-479): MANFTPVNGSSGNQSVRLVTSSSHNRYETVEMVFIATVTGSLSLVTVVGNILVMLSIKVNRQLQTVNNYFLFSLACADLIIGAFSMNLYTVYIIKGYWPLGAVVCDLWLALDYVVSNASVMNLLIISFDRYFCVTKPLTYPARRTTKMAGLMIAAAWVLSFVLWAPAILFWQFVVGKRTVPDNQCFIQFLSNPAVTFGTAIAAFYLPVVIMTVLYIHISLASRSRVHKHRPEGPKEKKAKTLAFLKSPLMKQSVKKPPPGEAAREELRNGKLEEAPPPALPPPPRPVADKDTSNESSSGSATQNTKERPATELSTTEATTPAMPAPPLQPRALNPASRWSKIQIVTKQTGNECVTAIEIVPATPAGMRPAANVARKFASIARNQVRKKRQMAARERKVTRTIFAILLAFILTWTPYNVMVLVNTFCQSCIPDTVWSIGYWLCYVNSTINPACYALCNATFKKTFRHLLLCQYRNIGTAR
Experimental: as §1

[5] = target: T4, human muscarinic receptor subtype M5 (Homo sapiens, UniProt P08912); experiment: as above
T4 sequence (P08912 1-532): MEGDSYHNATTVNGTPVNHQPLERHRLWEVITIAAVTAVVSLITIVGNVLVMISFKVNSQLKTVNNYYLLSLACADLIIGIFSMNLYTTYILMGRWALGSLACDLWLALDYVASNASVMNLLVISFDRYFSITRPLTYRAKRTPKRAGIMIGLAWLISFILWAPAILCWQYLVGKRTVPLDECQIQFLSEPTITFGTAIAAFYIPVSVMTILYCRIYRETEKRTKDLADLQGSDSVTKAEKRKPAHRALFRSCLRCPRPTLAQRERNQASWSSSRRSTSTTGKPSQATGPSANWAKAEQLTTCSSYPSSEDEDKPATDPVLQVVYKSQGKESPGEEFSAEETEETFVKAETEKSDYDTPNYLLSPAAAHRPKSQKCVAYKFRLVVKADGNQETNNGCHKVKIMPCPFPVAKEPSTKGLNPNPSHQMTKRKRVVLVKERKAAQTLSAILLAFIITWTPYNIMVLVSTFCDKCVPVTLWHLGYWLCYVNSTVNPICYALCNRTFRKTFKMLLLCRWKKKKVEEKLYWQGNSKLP
Experimental: as §1

[6] = [3H]-NMS displacement, CHO cell membranes, tested two to four times, SEM <=10%, read-out: Muscarinic Binding Activity M1 (IC50)
[7] = [3H]-NMS displacement, CHO cell membranes, tested two to four times, SEM <=10%, read-out: Muscarinic Binding Activity M2 (IC50)
[8] = [3H]-NMS displacement, CHO cell membranes, tested two to four times, SEM <=10%, read-out: Muscarinic Binding Activity M3 (IC50)
[9] = [3H]-NMS displacement, CHO cell membranes, tested two to four times, SEM <=10%, read-out: Muscarinic Binding Activity M4 (IC50)
[10] = [3H]-NMS displacement, CHO cell membranes, tested two to four times, SEM <=10%, read-out: Muscarinic Binding Activity M5 (IC50)

| SMILES | IC50 [1, 6] [µM] | IC50 [2, 7] [µM] | IC50 [3, 8] [µM] | IC50 [4, 9] [µM] | IC50 [5, 10] [µM] | melting point [°C] | binds to the M4 receptor more than to M1, M2, and M5 (selectivity) ([4]; M4 versus M1, M2 and M5) | binds to the M4 receptor more than to M3 (selectivity) [4] | bind to M4 more than some of the other subtypes (selectivity) [4] | IC50 [1] [µM] | IC50 [2] [µM] | IC50 [3] [µM] | IC50 [4] [µM] | IC50 [5] [µM] |
| --- | --- | --- | --- | --- | --- | --- | --- | --- | --- | --- | --- | --- | --- | --- |
| CCCc1[nH]c2ccc3c(c2c1C(=O)OCC)CN1CCc2cc(OC)ccc2C1O3 (stereo not drawn) [Example 1, 9-Methoxy-2-propyl-11,12-dihydro-3H,6αH,13H-6-oxa-3,12α-diaza-benzo[a]cyclopent[h]anthracene-1-carboxylic acid ethyl ester] | 4.66 | 2 | 0.13 | 0.009 | 3.66 | 191 to 193 |  |  |  |  |  |  |  |  |
| CCCc1c(C(=O)OCC)c2c3c(ccc2n1C)OC1c2ccc(SC)cc2CCN1C3 (stereo not drawn) [Example 2, 3-Methyl-9-methylsulfanyl-2-propyl-11,12-dihydro-3H,6aH,13H-6-oxa-3,12a-diaza-benzo[a]cyclopent[h]anthracene-1-carboxylic acid ethyl ester] | 7.5 | 7 | 0.37 | 0.007 | 3 | 139 to 143 | about 1000 fold | about 52 fold |  |  |  |  |  |  |
| CCCc1c(C(=O)OCC)c2c3c(ccc2n1C)OC1c2ccc(OC)cc2CCN1C3 (stereo not drawn) [Example 3, 9-Methoxy-3-methyl-2-propyl-11,12-dihydro-3H,6aH,13H-6-oxa-3,12a-diaza-benzo[a]cyclopent[h]anthracene-1-carboxylic acid ethyl ester] | 3 | 0.95 | 0.13 | 0.007 | 6 | 150 to 151 |  |  |  |  |  |  |  |  |
| CCCc1[nH]c2ccc3c(c2c1C(=O)OCC)CN1CCc2cc(SC)ccc2C1O3 (stereo not drawn) [Example 4, 9-Methylsulfanyl-2-propyl-11,12-dihydro-3H,6aH,13H-6-oxa-3,12a-diaza-benzo[a]cyclopent[h]anthracene-1-carboxylic acid ethyl ester] | 1.4 | 2 | 0.2 | 0.006 | 3.5 | 185 to 186 |  | about 30 fold | about 800 fold |  |  |  |  |  |
| CCCCc1[nH]c2ccc3c(c2c1C(=O)OCC)CN1CCc2cc(OC)ccc2C1O3 (stereo not drawn) [Example 5, 2-Butyl-9-methoxy-11,12-dihydro-3H,6aH,13H-6-oxa-3,12a-diaza-benzo[a]cyclopent[h]anthracene-1-carboxylic acid ethyl ester] | 0.8 | 0.55 | 0.19 | 0.006 | 13 |  |  | about 30 fold | about 800 fold |  |  |  |  |  |
| CCCCc1[nH]c2ccc3c(c2c1C(=O)OCC)CN1CCc2cc(SC)ccc2C1O3 (stereo not drawn) [Example 6, 2-Butyl-9-methylsulfanyl-11,12-dihydro-3H,6aH,13H-6-oxa-3,12a-diaza-benzo[a]cyclopent[h]anthracene-1-carboxylic acid ethyl ester] | 2 | 4 | 5 | 0.01 | 2 | 159 to 161 |  |  |  |  |  |  |  |  |
| CCCCCc1[nH]c2ccc3c(c2c1C(=O)OCC)CN1CCc2cc(OC)ccc2C1O3 (stereo not drawn) [Example 7, 9-Methoxy-2-pentyl-11,12-dihydro-3H,6aH,13H-6-oxa-3,12a-diaza-benzo[a]cyclopent[h]anthracene-1-carboxylic acid ethyl ester] | 50 | 0.6 | 0.2 | 0.01 | 10 | 170 to 172 |  |  |  |  |  |  |  |  |
| CCCCCCc1[nH]c2ccc3c(c2c1C(=O)OCC)CN1CCc2cc(OC)ccc2C1O3 (stereo not drawn) [Example 8, 2-Hexyl-9-methoxy-11,12-dihydro-3H,6aH,13H-6-oxa-3,12a-diaza-benzo[a]cyclopent[h]anthracene-1-carboxylic acid ethyl ester] | 2 | 0.8 | 0.4 | 0.03 | 3 | 157 to 160 |  |  |  |  |  |  |  |  |
| CCOC(=O)c1c(CC)n(CC)c2ccc3c(c12)CN1CCc2cc(OC)ccc2C1O3 (stereo not drawn) [Prior Art Compound Et/Et/9-OMe/Et, reference compound] |  |  |  |  |  |  |  |  |  | 5 | 1 | 0.05 | 0.02 | 5 |
| CCOC(=O)c1c(CC)[nH]c2ccc3c(c12)CN1CCc2cc(OC)ccc2C1O3 (stereo not drawn) [Prior Art Compound Et/Et/9-OMe/H, reference compound] | 2 | 2 | 0.2 | 0.02 | 6 |  |  |  |  |  |  |  |  |  |
| CCOC(=O)c1c(C)n(CC)c2ccc3c(c12)CN1CCc2cc(OC)ccc2C1O3 (stereo not drawn) [Prior Art Compound Et/Me/9-OMe/Et, reference compound] |  |  |  |  |  |  |  |  |  | 2 | 0.4 | 0.5 | 0.05 | 3 |
| CCOC(=O)c1c(C)[nH]c2ccc3c(c12)CN1CCc2cc(OC)ccc2C1O3 (stereo not drawn) [Prior Art Compound Et/Me/9-OMe/H, reference compound] | 3 | 1 | 0.5 | 0.03 | 6 |  |  |  |  |  |  |  |  |  |
| CCOC(=O)c1c(C)n(C)c2ccc3c(c12)CN1CCc2cc(OC)ccc2C1O3 (stereo not drawn) [Prior Art Compound Et/Me/9-OMe/Me, reference compound] | 0.5 | 0.4 | 0.4 | 0.05 | 1 |  |  |  |  |  |  |  |  |  |
